In the oligonucleotide strings, read from the 5' end, every base follows the letter of its sugar. An asterisk marks phosphorothioate; unmarked linkages are phosphodiester. Other units and linkages are bracketed, terminal groups are in braces. A string of capitals states the bases alone. l = locked nucleic acid (LNA); [5mC] = 5-methylcytosine; d = 2'-deoxy (DNA)
Legend:
[1] = test system: HER3 mRNA; assay: HER3 mRNA knockdown in liver of xenograft-bearing nude mice, different dosing cycle; type: in vivo, mouse; settings: for Liver HER3 mRNA relative to saline treated controls: 15PC3 xenograft mice, every third day
Experimental: (§1) To evaluate the knockdown efficacy of the HER3 oligomeric compounds in vivo, the female nude mice bearing 15PC3 xenografts developed by subcutaneous injection of 5×10^6 cells/mouse into the right axillary flank, were injected intravenously with the oligomers at various doses and injection schedules (i.e. single dose, qd, q3d, q4d). Scrambled oligomer SEQ ID NO: 236 served as a negative control. 24 hours after the last injection, the mice were euthanized and liver and tumor tissues were collected in RNAlater solution (Ambion). Total RNA was purified from the tissues and the levels of HER3 mRNA were determined by quantitative reverse transcription-real time PCR (qRT-PCR) using the QuantiTect Probe RT-PCR kit (Cat#: 204443; Qiagen). GAPDH mRNA served as an internal control.
(§2) The knockdown efficacy of oligomers was evaluated in vivo in nude mice bearing xenograft tumors derived from 15PC3 cells or A549 cells (NSCLC) or N87 cells (gastric carcinoma) using a similar protocol to the one described above in Example 11. […] Tissues were harvested 3 or 4 days after the last injection.
(§3) Data in Tables 6 and 7 are presented as % HER3 mRNA or HIF-1 alpha mRNA relative to saline treated controls in liver and tumor samples after i.v. dosing of animals with the indicated oligomers.

[2] = test system: HER3 and P-HER3; assay: Feedback upregulation of HER3 and P-HER3 by lapatinib in BT474, SKBR3 and MDA453 cells; type: cell-based, human; settings: lapatinib 1 μM, trastuzumab 10 μg/ml, SEQ ID NO: 180 5 μM, 0-48 hours
[3] = test system: gefitinib-resistant HCC827 cells; assay: Colony growth of gefitinib-resistant HCC827R cells (MTT staining, colony count); type: cell-based, human; settings: 1 μM, 10 days
Experimental: (§4) HCC827 lung adenocarcinoma cells (ATCC CRL-2868) were maintained at 37° C. in a humidified atmosphere of 5% CO2 and 95% air in RPMI medium supplemented with 10% fetal bovine serum. To generate gefitinib resistance, cells were treated with increasing amounts of gefitinib (up to 500 nM) for a period of 3 months.
(§5) HCC287 and HCC287R cells were plated in duplicate at 200 cells/well of a 6-well plate and incubated for 24 hours. Cells were treated with 1 μM of ON180 (SEQ ID NO: 180) and incubated for 10 days, after which cells were stained with MTT and the number of colonies counted. Percent of control was calculated for both HCC827 and […] cells.

[4] = test system: HCC827 human cell line xenograft; assay: Tumor growth in mouse xenograft model of human non-small cell lung cancer; type: in vivo; settings: at approximately 31 days
[5] = test system: HIF-1 alpha mRNA; assay: HIF-1 alpha mRNA in 15PC3 xenograft tumor, different dosing cycle; type: in vivo, human; settings: 60.2 x 2 or 3 mg/kg i.v., every third day
Experimental: as §1
(§6) The knockdown efficacy of oligomers was evaluated in vivo in nude mice bearing xenograft tumors derived from 15PC3 cells or A549 cells (NSCLC) or N87 cells (gastric carcinoma) using a similar protocol to the one described above in Example 11. Oligomers were administered by injection every third day in 2-4 doses. Tissues were harvested 3 or 4 days after the last injection.
as §3

[6] = test system: HER3 mRNA; assay: HER3 mRNA knockdown in 15PC3 xenograft tumor, different dosing cycle; type: in vivo, human; settings: every third day
Experimental: as §1, §6, §3

[7] = test system: HCC827 gefitinib-sensitive cells; assay: Colony growth of gefitinib-sensitive HCC827 cells (MTT staining, colony count); type: cell-based, human; settings: 1 μM, 10 days
Experimental: as §4, §5

[8] = test system: HER3 mRNA; assay: HER3 mRNA knockdown in N87 (gastric carcinoma) xenograft tumor; type: in vivo, human; settings: 25 mg/kg, q3d x 5, i.v.
Experimental: as §1, §2, §3

[9] = test system: Mouse HER3 mRNA; assay: HER3 mRNA knockdown in liver of nude mice bearing 15PC3 xenografts, qd x 5 (qRT-PCR); type: in vivo; settings: i.v.
Experimental: as §1
(§7) 200 ng of total RNA was used in the PCR reaction. The data analyses were performed by using the ABI-7500 PCR Fast System included software.
(§8) Data in Table 5 are presented as % HER3 mRNA levels relative to saline treated controls in liver and tumor samples after i.v. dosing of animals on 5 consecutive days with oligonucleotides in the doses indicated.

[10] = test system: human HER3 mRNA; assay: HER3 mRNA knockdown in 15PC3 xenograft tumor in nude mice, qd x 5 (qRT-PCR); type: in vivo; settings: i.v., relative to saline controls
Experimental: as §1, §7, §8

[11] = test system: HER3 mRNA; assay: HER3 mRNA knockdown in A549 (NSCLC) xenograft tumor; type: in vivo, human; settings: 35 mg/kg, q4d x 3, i.v.
Experimental: as §1, §6, §3

## TSASGScScStSgStScSaScStStSCSTSC (antisense lT*lA*lG*dC*dC*dT*dG*dT*dC*dA*dC*dT*dT*l[5mC]*lT*l[5mC]) [SEQ ID NO: 180, β-D-oxy-LNA/DNA phosphorothioate gapmer antisense oligonucleotide targeting HER3]
[1]; 60.2 x 4 mg/kg i.v.
  Liver HER3 mRNA relative to saline treated controls: 31.8 ± 5%
[1]; 60.2 x 2 or 3 mg/kg i.v.
  Liver HER3 mRNA relative to saline treated controls: 6.9 ± 3.6%
[1]; A549 xenograft mice, 35 mg/kg, q4d x 3, i.v.
  HER3 Liver: 31.8 ± 5.7 % saline control
[1]; N87 xenograft mice, 25 mg/kg, q3d x 5, i.v.
  HER3 Liver: 24.7 ± 3.1 % saline control
[2]
  prevention of feedback upregulation of HER3 and P-HER3 expression by lapatinib: able to prevent feedback upregulation of HER3 and P-HER3 expression by lapatinib
[3]
  reduction in cell growth as compared to the untreated control: greater than 80%
[4]; 30 mg/kg i.v.
  Mean tumor volume reduced vs. saline control: 65.5%
[4]; 45 mg/kg i.v.
  Mean tumor volume reduced vs. saline control: 81.3%
[5]
  Tumor Hif1A mRNA relative to saline treated controls: 101 ± 7.3%
[6]; 60.2 x 4 mg/kg i.v.
  Tumor HER3 mRNA relative to saline treated controls: 54.2 ± 9.1%
[6]; 60.2 x 2 or 3 mg/kg i.v.
  Tumor HER3 mRNA relative to saline treated controls: 47.1 ± 2.2%
[7]
  reduction in cell growth as compared to the untreated control: about 50%
[8]
  HER3 Tumor: 46.6 ± 13.4 % saline control
[9]; 19.8 mg/kg
  HER3 mRNA Liver: 1.7 ± 0.6 % of Sal ctrl
[9]; 25.6 mg/kg
  HER3 mRNA Liver: 3 ± 0.3 % of Sal ctrl
[9]; 31.3 mg/kg
  HER3 mRNA Liver: 1.6 ± 0.3 % of Sal ctrl
[9]; 66 mg/kg
  HER3 mRNA Liver: 6 ± 5.3 % of Sal ctrl
[9]; 85.3 mg/kg
  HER3 mRNA Liver: 1 ± 0.3 % of Sal ctrl
[10]; 19.8 mg/kg
  HER3 mRNA Tumor: 83.1 ± 19.5%
[10]; 25.6 mg/kg
  HER3 mRNA Tumor: 65 ± 20.2%
[10]; 31.3 mg/kg
  HER3 mRNA Tumor: 37 ± 5.8%
[10]; 66 mg/kg
  HER3 mRNA Tumor: 32.3 ± 9.7%
[10]; 85.3 mg/kg
  HER3 mRNA Tumor: 25.8 ± 4.1%
[11]
  HER3 Tumor: 54.6 ± 15.2 % saline control
